Data from patent US8906349B2, “Oral care composition” (priority 2009, dated 2014).
Converted amounts (≈) assume the structure as drawn. Where two headings read alike, the source gives them in different places.

Legend:
Assay type in all cases: cell-based
A. viscosus = experiment: Minimum inhibitory concentration, serial dilution in 96-well plate, 24 h; details: Actinomyces viscosus, read-out: MIC (A. viscosus)
Experimental: The minimum inhibitory concentration for actives was determined by incubating Actinomyces viscosus bacteria with serial dilutions of the active for 24 hours and determining the lowest concentration at which growth of this species was inhibited. Briefly, 100 μl final volume actives were serially diluted in 0.5× tryptic soy broth (TSB) across duplicate wells of a 96-well flat bottom microtiter plate. An overnight culture of bacteria was diluted to an OD610 ˜0.2 and 100 μl of this was added to each well. Plates were incubated overnight at 37° C. OD610 was read for each well and the MIC was determined as the concentration of active in the last well where bacterial growth was inhibited.

A. viscosus biofilm [1] = experiment: Inhibition of single-species biofilm formation by serial dilutions of bisabolol (Example 2); details: bisabolol alone, 24 hours, FIG. 1
Experimental: The effect of different concentrations of bisabolol on the inhibition of A. viscosus biofilm formation was tested. A. viscosus bacteria were grown for 24 hours in the presence of serial dilutions of bisabolol or an equivalent concentration of EtOH. Wells were stained to visualize biofilm formation. The results are shown in FIG. 1 where the x-axis represents the concentration of bisabolol (or an equivalent solution of EtOH in media) and the y-axis represents the percent reduction in biofilm relative to control wells grown in media alone.

A. viscosus biofilm [2] = experiment: Biofilm Eradication Concentration (BEC50), crystal violet biomass, compositions serially diluted (Example 3); details: FIG. 2; for BEC(50) alone: active tested alone, lowest concentration with >50% reduction in biomass vs media control; for BEC50 in combination: bisabolol (0.7%) and Triclosan (0.05%) composition serially diluted, concentration of the named active in the combination
Experimental: A composition comprising bisabolol, a composition comprising the antibacterial agent Triclosan and a composition comprising both bisabolol and Triclosan were tested for antibiofilm activity.
A composition comprising bisabolol (0.7%), a composition comprising Triclosan (0.05%) and a composition comprising bisabolol (0.7%) and Triclosan (0.05%) were each serially diluted in a 96-well plate. A. viscosus cultures were added to each well and plates were incubated at 37° C. to allow biofilm formation to occur. Following biofilm formation, supernatants were removed and wells were stained with 0.6% crystal violet for 15 min. Biofilm biomass was quantified by reading the absorbance of each well at 590 nm and the percentage reduction in biomass relative to a control of media alone was calculated.
BEC50 is defined as the minimum concentration at which a greater than 50% reduction of biofilm formation is observed.

A. viscosus biofilm [3] = experiment: Bioenhancement assay: BEC50 of antimicrobial agents with or without bisabolol, crystal violet, 24 h (Examples 4 and 5)
[4] = test system: five-species biofilm: A. viscosus, Lactobacillus casei, Streptococcus oralis, Fusobacterium nucleatum and Veillonella parvula; experiment: Multispecies biofilm formation on saliva coated hydroxyapatite disks, 48 h, OD610 (Example 6); details: 20 ppm of Triclosan alone, FIG. 5
Experimental: The ability of compositions comprising Triclosan and bisabolol either alone or in combination to inhibit biofilm formation were tested in a multispecies model where the biofilms comprised five representative oral bacterial species: A. viscosus, Lactobacillus casei, Streptococcus oralis, Fusobacterium nucleatum and Veillonella parvula. Saliva coated hydroxyapatite (HAP) disks were inoculated with this five-species mix of bacteria in the presence Triclosan alone, bisabolol alone or with a 2:1 concentration of bisabolol:Triclosan. Disks were incubated for 48 h to allow biofilm formation to occur. Biofilm containing disks are were incubated in 1 ml of 0.25% trypsin solution for 45 min at 37° C. to release the biofilm and biomass was read as the OD610 of the trypsin solution.
In order to determine any antibiofilm effect beyond that of Triclosan, it was necessary to reduce the concentration of Triclosan below the inhibitory concentration. […]

[5] = Table 2, absence of bisabolol, FIG. 4a
[6] = Table 2, presence of 50 ppm bisabolol, FIG. 4a
[7] = first Table 3, said to be raw data of FIG. 4b, absence of bisabolol
[8] = first Table 3, said to be raw data of FIG. 4b, presence of 50 ppm bisabolol

Molecule | MIC (A. viscosus; lowest concentration inhibiting growth, overnight at 37° C., 0.5× TSB) | lowest concentration inhibiting formation of single-species biofilms (A. viscosus biofilm [1]) | BEC(50) alone (A. viscosus biofilm [2]) | BEC50 in combination (A. viscosus biofilm [2]) | BEC(50) alone (A. viscosus biofilm [3]; [5]) | BEC(50) w/bisabolol (A. viscosus biofilm [3]; [6]) | BEC(50) alone (A. viscosus biofilm [3]; [7]) | BEC(50) w/bisabolol (A. viscosus biofilm [3]; [8]) | MIC (A. viscosus) | reduction in biofilm formation [4] | BEC50 of Triclosan alone (A. viscosus biofilm [3]; Example 4, no bisabolol, FIG. 3) | BEC50 of Triclosan in the composition comprising bisabolol (A. viscosus biofilm [3]; Example 4, with 5 ppm bisabolol, FIG. 3)
CC(C)=CCC[C@](C)(O)C1CC=C(C)CC1 (some centres unmarked) [Bisabolol] | 125 µg/mL (≈ 562 µM) | 110 ppm | 110 ppm | 27.3 ppm |  |  |  |  |  |  |  | 
CCCCCCCCCCCCCCCC[n+]1ccccc1 [CPC, cetyl pyridinium chloride] |  |  |  |  | 0.6836 | 0.4883 | 0.1196 | 1.7999E−07 |  |  |  | 
Oc1cc(Cl)ccc1Oc1ccc(Cl)cc1Cl [Triclosan] |  |  | approximately 3.9 ppm | 1.95 ppm | 1.465 | 0.4883 | 0.2819 | 0 | 3.5 µg/mL (≈ 12.1 µM) | > 60% | 4.13 ppm | 1.78 ppm
CCCCc1ccc(O)c(-c2cc(CCCC)ccc2O)c1 [butyl magnolol] |  |  |  |  | 0.5859 | 0.5859 | 0.09766 | 0.09766 |  |  |  | 
C=CCc1ccc(O)c(-c2ccc(O)c(CC=C)c2)c1 [honokiol] |  |  |  |  | 13.38 | 5.176 | 5.41 | 2.69 |  |  |  | 
C=CCc1ccc(O)c(-c2cc(CC=C)ccc2O)c1 [magnolol] |  |  |  |  | 3.906 | 0.8789 | 1.07 | 0.2847 |  |  |  | 
CCCc1ccc(O)c(-c2ccc(O)c(CCC)c2)c1 [propyl honokiol] |  |  |  |  | 2.344 | 1.367 | 0.3906 | 0.2392 |  |  |  | 
[Cl][Sn][Cl] [stannous chloride] |  |  |  |  | 234.375 | 161.1 | 45.11 | 59.87 |  |  |  | 
[F][Sn][F] [stannous flouride, stannous fluoride] |  |  |  |  | 312.5 | 86.06 | 0 | 75.56 |  |  |  | 
O=C([O-])CC(O)(CC(=O)[O-])C(=O)[O-].O=C([O-])CC(O)(CC(=O)[O-])C(=O)[O-].[Zn+2].[Zn+2].[Zn+2] [zinc citrate] |  |  |  |  | 208.3 | 19.53 | 52.08 | 9.766 |  |  |  | 
catechin |  |  |  |  | 812.5 | 618.75 | 187.5 | 233.5 |  |  |  | 
